Experimental data from US9265253B2, “Use of macrocyclic picolinamides as fungicides” (DOW AGROSCIENCES LLC, priority 2013, dated 2016).

Tests used:
Type in all cases: in vivo
[1] = test system: Glomerella lagenarium; Anamorph: Colletotrichum lagenarium; assay: Cucumber Anthracnose (COLLLA) disease control; details: Colletotrichum orbiculare, topical, 24 h, 1 Day Protectant, read-out: Disease Control COLLLA 1 DP
Method: Technical grades of materials were dissolved in acetone, which were then mixed with nine volumes of water containing 110 ppm Triton X-100. The fungicide solutions were applied onto wheat seedlings using an automated booth sprayer to run-off. All sprayed plants were allowed to air dry prior to further handling. All fungicides were evaluated using the aforementioned method for their activity vs. all target diseases. Wheat leaf blotch and brown rust activity were also evaluated using track spray applications, in which case the fungicides were formulated as EC formulations, containing 0.1% Trycol 5941 in the spray solutions. Wheat plants (variety Yuma) were grown from seed in a greenhouse in 50% mineral soil/50% soil-less Metro mix until the first leaf was fully emerged, with 7-10 seedlings per pot. These plants were inoculated with an aqueous spore suspension of Septoria tritici either prior to or after fungicide treatments. After inoculation the plants were kept in 100% relative humidity (one day in a dark dew chamber followed by two to three days in a lighted dew chamber at 20° C.) to permit spores to germinate and infect the leaf. The plants were then transferred to a greenhouse set at 20° C. for disease to develop. When disease symptoms were fully expressed on the 1st leaves of untreated plants, infection levels were assessed on a scale of 0 to 100 percent disease severity. Percent disease control was calculated using the ratio of disease severity on treated plants relative to untreated plants. Cucumber seedlings (variety Bush Pickle) were propagated in soil-less Metro mix, with each pot having one plant, and used in the test when 12 to 14 days old. Test plants were inoculated with an aqueous spore suspension of Colletotrichum lagenarium 24 hr after fungicide treatments. After inoculation the plants were kept in a dew room at 22° C. with 100% relative humidity for 48 hr to permit spores to germinate and infect the leaf. The plants were then transferred to a growth room set at 22° C. for disease to develop. Fungicide formulation, application and disease assessment on the sprayed leaves followed the procedures as described in the Example A.

Uncinula necator = assay: Grape Powdery Mildew (UNCINE) disease control; details: Erysiphe necator, topical, 24 h, 1 Day Protectant, read-out: Disease Control UNCINE 1 DP
Method: Technical grades of materials were dissolved in acetone, which were then mixed with nine volumes of water containing 110 ppm Triton X-100. The fungicide solutions were applied onto wheat seedlings using an automated booth sprayer to run-off. All sprayed plants were allowed to air dry prior to further handling. All fungicides were evaluated using the aforementioned method for their activity vs. all target diseases. Wheat leaf blotch and brown rust activity were also evaluated using track spray applications, in which case the fungicides were formulated as EC formulations, containing 0.1% Trycol 5941 in the spray solutions. Wheat plants (variety Yuma) were grown from seed in a greenhouse in 50% mineral soil/50% soil-less Metro mix until the first leaf was fully emerged, with 7-10 seedlings per pot. These plants were inoculated with an aqueous spore suspension of Septoria tritici either prior to or after fungicide treatments. After inoculation the plants were kept in 100% relative humidity (one day in a dark dew chamber followed by two to three days in a lighted dew chamber at 20° C.) to permit spores to germinate and infect the leaf. The plants were then transferred to a greenhouse set at 20° C. for disease to develop. When disease symptoms were fully expressed on the 1st leaves of untreated plants, infection levels were assessed on a scale of 0 to 100 percent disease severity. Percent disease control was calculated using the ratio of disease severity on treated plants relative to untreated plants. Grape seedlings (variety Carignane) were grown in soil-less Metro mix, with one plant per pot, and used in the test when approximately one month old. Plants were inoculated 24 hr after fungicide treatment by shaking spores from infected leaves over test plants. Plants were maintained in a greenhouse set at 20° C. until disease was fully developed. Fungicide formulation, application and disease assessment on the sprayed leaves followed the procedures as described in the Example A.

Rhyncosporium secalis = assay: Barley Scald (RHYNSE) disease control; details: Hordeum vulgare, 24 h, 1 Day Protectant, read-out: Disease Control RHYNSE 1 DP
Method: Technical grades of materials were dissolved in acetone, which were then mixed with nine volumes of water containing 110 ppm Triton X-100. The fungicide solutions were applied onto wheat seedlings using an automated booth sprayer to run-off. All sprayed plants were allowed to air dry prior to further handling. All fungicides were evaluated using the aforementioned method for their activity vs. all target diseases. Wheat leaf blotch and brown rust activity were also evaluated using track spray applications, in which case the fungicides were formulated as EC formulations, containing 0.1% Trycol 5941 in the spray solutions. Wheat plants (variety Yuma) were grown from seed in a greenhouse in 50% mineral soil/50% soil-less Metro mix until the first leaf was fully emerged, with 7-10 seedlings per pot. These plants were inoculated with an aqueous spore suspension of Septoria tritici either prior to or after fungicide treatments. After inoculation the plants were kept in 100% relative humidity (one day in a dark dew chamber followed by two to three days in a lighted dew chamber at 20° C.) to permit spores to germinate and infect the leaf. The plants were then transferred to a greenhouse set at 20° C. for disease to develop. When disease symptoms were fully expressed on the 1st leaves of untreated plants, infection levels were assessed on a scale of 0 to 100 percent disease severity. Percent disease control was calculated using the ratio of disease severity on treated plants relative to untreated plants. Barley seedlings (variety Harrington) were propagated in soil-less Metro mix, with each pot having 8 to 12 plants, and used in the test when first leaf was fully emerged. Test plants were inoculated by an aqueous spore suspension of Rhyncosporium secalis 24 hr after fungicide treatments. After inoculation the plants were kept in a dew room at 20° C. with 100% relative humidity for 48 hr. The plants were then transferred to a greenhouse set at 20° C. for disease to develop. Fungicide formulation, application and disease assessment on the sprayed leaves followed the procedures as described in the Example A.

Cercospora beticola = assay: Leaf Spot of Sugar Beets (CERCBE) disease control; details: Cercospora beticola, topical, 24 h, 1 Day Protectant, sugar beet, read-out: Disease Control CERCBE 1 DP
Method: Technical grades of materials were dissolved in acetone, which were then mixed with nine volumes of water containing 110 ppm Triton X-100. The fungicide solutions were applied onto wheat seedlings using an automated booth sprayer to run-off. All sprayed plants were allowed to air dry prior to further handling. All fungicides were evaluated using the aforementioned method for their activity vs. all target diseases. Wheat leaf blotch and brown rust activity were also evaluated using track spray applications, in which case the fungicides were formulated as EC formulations, containing 0.1% Trycol 5941 in the spray solutions. Wheat plants (variety Yuma) were grown from seed in a greenhouse in 50% mineral soil/50% soil-less Metro mix until the first leaf was fully emerged, with 7-10 seedlings per pot. These plants were inoculated with an aqueous spore suspension of Septoria tritici either prior to or after fungicide treatments. After inoculation the plants were kept in 100% relative humidity (one day in a dark dew chamber followed by two to three days in a lighted dew chamber at 20° C.) to permit spores to germinate and infect the leaf. The plants were then transferred to a greenhouse set at 20° C. for disease to develop. When disease symptoms were fully expressed on the 1st leaves of untreated plants, infection levels were assessed on a scale of 0 to 100 percent disease severity. Percent disease control was calculated using the ratio of disease severity on treated plants relative to untreated plants. Sugar beet plants (variety HH88) were grown in soil-less Metro mix and trimmed regularly to maintain a uniform plant size prior to test. Plants were inoculated with a spore suspension 24 hr after fungicide treatments. Inoculated plants were kept in a dew chamber at 22° C. for 48 hr then incubated in a greenhouse set at 24° C. under a clear plastic hood with bottom ventilation until disease symptoms were fully expressed. Fungicide formulation, application and disease assessment on the sprayed leaves followed the procedures as described in the Example A.

Compound | pest or weed control at 100 ppm [1] | pest or weed control at 100 ppm (Uncinula necator) | pest or weed control at 100 ppm (Rhyncosporium secalis) | pest or weed control at 100 ppm (Cercospora beticola)
CCCO[C@@H]1[C@@H](Cc2ccccc2)CCC[C@H](NC(=O)c2nccc(OC)c2OCOC(C)=O)C(=O)O[C@H]1C [Compound F109] | 80 to 100% | 80 to 100% | 80 to 100% | 80 to 100%
C=C[C@H]1CCC[C@H](NC(=O)c2nccc(OC)c2OC(C)=O)C(=O)O[C@@H](C)[C@@H]1Oc1ccccc1 [Compound F86] | 80 to 100% | 80 to 100% | 80 to 100% | 80 to 100%
CCO[C@@H]1[C@@H](Cc2ccccc2)CCC[C@H](NC(=O)c2nccc(OC)c2OC(C)=O)C(=O)O[C@H]1C [Compound F87] | 80 to 100% | 80 to 100% | 80 to 100% | 80 to 100%
CCOCC(=O)OCOc1c(OC)ccnc1C(=O)N[C@H]1CCC[C@H](Cc2ccccc2)[C@@H](OCC(C)C)[C@H](C)OC1=O [Compound F172] | 80 to 100% | 0 to 80% | 80 to 100% | 80 to 100%
C=C[C@H]1CCC[C@H](NC(=O)c2nccc(OC)c2OCOC(C)=O)C(=O)O[C@@H](C)[C@@H]1Oc1ccccc1 [Compound F146] | 80 to 100% | 80 to 100% | 80 to 100% | 80 to 100%
CCCO[C@@H]1[C@@H](Cc2ccccc2)CCC[C@H](NC(=O)c2nccc(OC)c2OC(=O)CCOC)C(=O)O[C@H]1C [Compound F198] | 80 to 100% | 80 to 100% | 80 to 100% | 80 to 100%
COc1ccnc(C(=O)N[C@H]2CCC[C@H](Cc3ccccc3)[C@@H](OCC(C)C)[C@H](C)OC2=O)c1OC(C)=O [Compound F70] | 80 to 100% | 80 to 100% | 80 to 100% | 80 to 100%
COCC[C@H]1CCC[C@H](NC(=O)c2nccc(OC)c2OC(C)=O)C(=O)O[C@@H](C)[C@@H]1Oc1ccccc1 [Compound F78] | 80 to 100% | 0 to 80% | 80 to 100% | 80 to 100%
CCOCC(=O)OCOc1c(OC)ccnc1C(=O)N[C@H]1CCC[C@H](Cc2ccccc2)[C@@H](OCC2CC2)[C@H](C)OC1=O [Compound F173] | 80 to 100% | 0 to 80% | 80 to 100% | 80 to 100%
COc1ccnc(C(=O)N[C@H]2CCC[C@H](Cc3ccccc3)[C@@H](Oc3ccccc3)[C@H](C)OC2=O)c1OCOC(C)=O [Compound F108] | 80 to 100% | 80 to 100% | 80 to 100% | 80 to 100%
CCCO[C@@H]1[C@@H](CCC(C)C)CCC[C@H](NC(=O)c2nccc(OC)c2OC(C)=O)C(=O)O[C@H]1C [Compound F64] | 80 to 100% | 80 to 100% | 80 to 100% | 80 to 100%
COc1ccnc(C(=O)N[C@H]2CCC[C@H](CCF)[C@@H](OCC(C)C)[C@H](C)OC2=O)c1OCOC(C)=O [Compound F128, ((2-(((3S,7R,8R,9S)-7-(2-fluoroethyl)-8-isobutoxy-9-methyl-2-oxooxonan-3-yl)carbamoyl)-4-methoxypyridin-3-yl)oxy)methyl acetate] | 80 to 100% | 80 to 100% | 0 to 80% | 80 to 100%
COc1ccnc(C(=O)N[C@H]2CCC[C@H](Cc3ccccc3)[C@@H](OCC3CC3)[C@H](C)OC2=O)c1OCOC(=O)C(C)C [Compound F152] | 80 to 100% | 0 to 80% | 80 to 100% | 80 to 100%
COc1ccnc(C(=O)N[C@H]2CCC[C@H](CC(F)F)[C@@H](Oc3ccccc3)[C@H](C)OC2=O)c1OCOC(C)=O [Compound F138] | 80 to 100% | 0 to 80% | 0 to 80% | 80 to 100%
COc1ccnc(C(=O)N[C@H]2CCC[C@H](Cc3ccc(F)cc3)[C@@H](OCC3CC3)[C@H](C)OC2=O)c1OC(C)=O [Compound F67] | 80 to 100% | 0 to 80% | 80 to 100% | 80 to 100%
CCCO[C@@H]1[C@@H](CCC(C)C)CCC[C@H](NC(=O)c2nccc(OC)c2OCOC(=O)COCC)C(=O)O[C@H]1C [Compound F161] | 80 to 100% | 80 to 100% | 80 to 100% | 80 to 100%
CCOCC(=O)OCOc1c(OC)ccnc1C(=O)N[C@H]1CCC[C@H](CCF)[C@@H](OCC(C)C)[C@H](C)OC1=O [Compound F181] | 80 to 100% | 0 to 80% | 0 to 80% | 0 to 80%
